Counter-ions that a name gives are not always drawn. Like-named read-outs stand apart in the source and are kept apart here.
Tests used:
TAAR1 receptor = biological target: T1, TAAR1 receptor (Homo sapiens, UniProt Q96RJ0); assay: TAAR1 receptor cAMP agonist test; format: cell-based; design: Emax: dose or concentration left out as unconfirmed
T1 sequence (Q96RJ0 1-339): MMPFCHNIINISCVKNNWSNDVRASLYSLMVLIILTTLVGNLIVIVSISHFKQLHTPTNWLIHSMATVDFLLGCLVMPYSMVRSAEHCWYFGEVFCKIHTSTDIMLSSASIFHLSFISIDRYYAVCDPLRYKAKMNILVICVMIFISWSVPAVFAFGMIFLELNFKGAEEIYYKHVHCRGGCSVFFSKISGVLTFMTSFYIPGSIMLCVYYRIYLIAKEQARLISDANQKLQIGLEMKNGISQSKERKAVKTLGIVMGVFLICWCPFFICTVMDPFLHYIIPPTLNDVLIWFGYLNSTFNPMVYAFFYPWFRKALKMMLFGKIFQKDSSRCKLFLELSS
Description: The cAMP detection kit was purchased from Cisbio; the […] cell line stably expressing TAAR1 receptor was constructed by Shanghai Shujing Biotechnology Co., Ltd.; IBMX was purchased from Sigma; Phenethylamine (PEA); ProxiPlate-384 well plate was purchased from PerkinElmer; HBSS was purchased from Thermo Fisher Scientific Company.

5-HT1A receptor = biological target: T2, 5-HT1A receptor (Homo sapiens, UniProt P08908); assay: 5-HT1A receptor cAMP agonist test; format: cell-based
T2 sequence (P08908 1-422): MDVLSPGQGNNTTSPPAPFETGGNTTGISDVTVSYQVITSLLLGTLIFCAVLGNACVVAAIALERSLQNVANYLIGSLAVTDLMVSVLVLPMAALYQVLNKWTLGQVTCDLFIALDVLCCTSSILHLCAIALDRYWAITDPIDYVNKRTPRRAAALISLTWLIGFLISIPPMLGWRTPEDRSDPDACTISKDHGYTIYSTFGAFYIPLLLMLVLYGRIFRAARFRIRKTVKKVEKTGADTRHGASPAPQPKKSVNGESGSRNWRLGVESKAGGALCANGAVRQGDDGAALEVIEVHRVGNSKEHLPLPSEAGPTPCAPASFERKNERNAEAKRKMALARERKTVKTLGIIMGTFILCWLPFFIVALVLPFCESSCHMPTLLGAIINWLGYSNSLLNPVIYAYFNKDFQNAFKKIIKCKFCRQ
Description: The cAMP detection kit was purchased from Cisbio; the HEK293 cell line stably expressing 5-HT1A receptor was constructed by Shanghai Shujing Biotechnology Co., Ltd.; Serotonin, Forskolin and IBMX were purchased from Sigma; ProxiPlate-384-well plates was purchased from PerkinElmer; HBSS was purchased from Thermo Fisher Scientific.
Activation rate (activity %)=(negative control ratio-compound ratio)/(negative control ratio-positive control ratio)×100%

[1] = tested on: high spontaneous activity induced by MK-801 in mice; assay: Inhibition of high spontaneous activity induced by MK-801 in mice; format: in vivo, male C57Bl/6J mice
Experimental: Compounds to be tested: compounds in the examples of the present application, self-made.
(§1) Experimental animals: 18-22 g male C57Bl/6J mice, purchased from Shanghai Slack Experimental Animal Co., Ltd.
(§2) before the start of the experiment, animals were randomly grouped according to body weight.
before the experiment, the mice were first adapted to the experimental environment for at least 1 hour. That is, the animals were transferred from the breeding room to the laboratory and moved freely in the cage.
(§3) Drug preparation: taking the compound to be tested, adding pure water and performing ultrasonication.
(§4) The animals were randomly divided into blank group, model group, and administration group according to body weight, 9 mice/group, and the detailed administration information is shown in the following table:
(§5) T-30 min oral administration of compound: compound to be tested or solvent (pure water) was administered orally by gavage, and put into test box (test box size length*width*height=27*27*40 cm) immediately after administration, recording the spontaneous activity of the mice within 30 minutes.
The blank control group was injected with normal saline.
(§6) The activities of these animals (movement distance in the test box) were automatically recorded by the camera, and analyzed with ANY MAZE software, and the ED50 values were calculated.

[2] = tested on: high spontaneous activity induced by PCP in mice; assay: Inhibition of high spontaneous activity induced by PCP in mice; format: in vivo, male C57Bl/6J mice
Description: Compounds to be tested: compounds of the examples of the present application, self-made.
Phencyclidine hydrochloride (PCP): purchased from Shanghai Yuansi Standard Science Technology Co., Ltd., specification: 5 g.
as §1, §2
before the experiment, the mice were first adapted to the experimental environment for at least 1 hour. That is, animals were transferred from the feeding room to the laboratory, and moved freely in the cage.
as §3, §4, §5
T0 min intraperitoneal injection of modeling drug: 30 minutes after compound administration, the mice were taken out, and administered with PCP (5 mg/kg) by intraperitoneal injection. The blank control group was injected with pure water. After the administration of PCP, the animals were immediately put back into the test box, and the test was continued for 60 minutes.
as §6

[3] = Equilibrium solubility in water for 24 hours; format: physicochemical; details: deionized water, 37 °C
Experimental: Investigating the equilibrium solubility of each hydrochloride crystal form of Compound A in water for 24 hours.
Excess samples of hydrochloride crystal form I and hydrochloride crystal form II of Compound A were weighed and placed in different 10 mL centrifuge tubes, and 1 mL of deionized water was added, sealed with a parafilm, shaking at a constant temperature of 37 °C and 150 rpm for 24 hours; after passing through a 0.45 μm organic filter, the sample was diluted and injected for HPLC analysis.

[4] = Solid stability experiment (high temperature, high humidity, light); format: physicochemical; details: for chemical stability: high temperature, high humidity, or illumination, conclusion in words; for degraded at 240 h / degraded at 480 h / degraded at 2040 h: solid, read-out: Increase of total impurities; for degraded at 240 h: day 10; for degraded at 480 h: day 20; for degraded at 2040 h: day 85
Experimental: Investigating the chemical stability of each hydrochloride crystal form of Compound A under high temperature, high humidity, and light conditions.
Appropriate amounts of hydrochloride crystal form I and hydrochloride crystal form II of Compound A were weighed and placed in weighing dishes respectively; three samples for each salt were prepared, and placed respectively in a oven at 60 °C, a drying dish with RH 92.5%, and a stability test chamber with an illumination condition of 5000 lx for 85 days. After mixing all samples evenly at day 0, day 10, day 20, and day 85, samples were taken and dissolved in acetonitrile and water, and the content and impurity changes were detected by HPLC-related substance detection method.

With CNC[C@@H]1OCC2(CC2)c2sccc21 (single isomer, unassigned) [Compound A] the “agonist effect on the TAAR1 receptors” value (TAAR1 receptor; conclusion in words) was “have an agonist effect on the TAAR1 receptors”, the Emax (TAAR1 receptor; read-out: TAAR1 Max Act %) was 95.5% and the Emax at 1 µM (5-HT1A receptor; activation rate, positive control Serotonin, final concentration 10^−6M, read-out: 5-HT1A Max Act %) was 95.2%. The “agonistic effect on 5-HT1A receptors” value (5-HT1A receptor; conclusion in words) was “has agonistic effect on 5-HT1A receptors”, the “inhibitory effect compared to SEP-363856” value ([1]; MK-801 model, conclusion in words) was “lower minimum effective dose and stronger inhibitory effect” and the minimal effective dose ([1]; Mus musculus, po, 2.5 h, p.o. 30 min before MK-801 0.3 mg/kg i.p., movement distance, 150 min, read-out: MED (minimum effective dose)) was 10 mg/kg. For the same compound, the “inhibition of high spontaneous activity induced by MK-801” value ([1]; p.o., conclusion in words) was “can significantly inhibit the high spontaneous activity induced by MK-801 in mice, and the inhibitory effect is gradually enhanced with the increase of the compound dosage, and there is a good dose-dependent relationship”, the minimal effective dose ([2]; Mus musculus, po, 1 h, p.o. 30 min before PCP 5 mg/kg i.p., movement distance, 60 min, read-out: MED (minimum effective dose)) was 0.1 mg/kg and the “inhibitory effect compared to SEP-363856” value ([2]; PCP model, conclusion in words) was “lower minimum effective dose and stronger inhibitory effect”. For the same compound, the “inhibition of high spontaneous activity induced by PCP” value ([2]; p.o., conclusion in words) was “can significantly inhibit the high spontaneous activity induced by PCP in mice, and the inhibitory effect is gradually enhanced with the increase of the compound dosage, and there is a good dose-dependent relationship”.

For CNC[C@@H]1OCC2(CC2)c2sccc21 [Hydrochloride crystal form I, (R)-1-(4′H,6′H-spiro[cyclopropane-1,7′-thieno[3,2-c]pyran]-4′-yl)-N-methylmethylamine], the solubility thermodynamic at 24 h ([3]; water) was 155 mg/mL, the chemical stability [4] was “good chemical stability” and the degraded at 240 h ([4]; High humidity of RH 92.5%) was < 0.1%. The degraded at 480 h ([4]; High humidity of RH 92.5%) was < 0.1%, the degraded at 2040 h ([4]; High humidity of RH 92.5%) was 0.199% and the degraded at 240 h ([4]; Illumination of 5000 lx) was < 0.1%. For the same compound, the degraded at 480 h ([4]; Illumination of 5000 lx) was < 0.1% and the degraded at 2040 h ([4]; Illumination of 5000 lx) was < 0.1%.

For CNC[C@@H]1OCC2(CC2)c2sccc21 [Hydrochloride crystal form II, (R)-1-(4′H,6′H-spiro[cyclopropane-1,7′-thieno[3,2-c]pyran]-4′-yl)-N-methylmethylamine], the Equilibrium solubility ([3]; 1440 min) was 162.30 mg/mL, the chemical stability [4] was “good chemical stability” and the degraded at 240 h ([4]; High temperature of 60 °C) was < 0.1%. For the same compound, the degraded at 480 h ([4]; High temperature of 60 °C) was < 0.1% and the degraded at 2040 h ([4]; High temperature of 60 °C) was 0.133%.
